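Values below derive from 48-hour exposures of cells grown in 96-well plates, with endpoints linearly interpolated between the two concentrations bracketing the appropriate inhibition level. TGI marks complete inhibition of growth.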

Test systems include SN12C renal; OVCAR-5 ovarian; M14 melanoma; UO-31 renal; SF-268 CNS; K-562 leukemia; SR leukemia; IGROV1 ovarian; MOLT-4 leukemia; OVCAR-3 ovarian.
Common to all, as to test: NCI tumour cell line growth inhibition, 48 h

As for `Nc1nc(-c2ccccc2)cc(-c2ccc(F)cc2)c1-c1ccc(Cl)cc1`, the TGI in the test on SN12C renal, in the test with OVCAR-5 ovarian, in the test on M14 melanoma, with UO-31 renal, in the test on SF-268 CNS and in the test with K-562 leukemia was more than 100 µM each time. The TGI in the test on SR leukemia, in the test with IGROV1 ovarian, in the test on MOLT-4 leukemia and in the test with OVCAR-3 ovarian was more than 100 µM each time.
With `OCCOCn1nc(-c2ccccc2)nc1-c1cnccn1`, the TGI in the test on SN12C renal, in the test with OVCAR-5 ovarian, in the test with M14 melanoma, in the test with UO-31 renal, in the test on SF-268 CNS and in the test on K-562 leukemia was more than 100 µM each time. The TGI in the test on SR leukemia, in the test on IGROV1 ovarian, in the test on MOLT-4 leukemia and in the test on OVCAR-3 ovarian was more than 100 µM each time.
With `O=c1[nH]c(=O)n(COCCO)cc1-c1ccccc1`, the TGI in the test on SN12C renal, in the test on OVCAR-5 ovarian, with M14 melanoma, in the test with UO-31 renal, in the test with SF-268 CNS and with K-562 leukemia was more than 100 µM each time. Also, the TGI with SR leukemia, in the test on IGROV1 ovarian, in the test on MOLT-4 leukemia and with OVCAR-3 ovarian was more than 100 µM each time.
On to `CC1(C)OC2C(CO)OC(/N=C(\NC#N)Oc3ccccc3)C2O1` (stereo unspecified), for which the TGI in the test on SN12C renal, in the test on OVCAR-5 ovarian, in the test on M14 melanoma, with UO-31 renal, with SF-268 CNS and in the test on K-562 leukemia was more than 100 µM in each case. Also, the TGI in the test on SR leukemia, with IGROV1 ovarian, in the test on MOLT-4 leukemia and in the test on OVCAR-3 ovarian was more than 100 µM throughout.
For the molecule `NC(=O)c1ccc(N)nc1`, the TGI in the test on SN12C renal, in the test with OVCAR-5 ovarian, with M14 melanoma, with UO-31 renal, in the test with SF-268 CNS and with K-562 leukemia was more than 400 µM throughout. In addition, the TGI in the test with SR leukemia, in the test on IGROV1 ovarian, with MOLT-4 leukemia and in the test on OVCAR-3 ovarian was more than 400 µM each time.
As for `NCCCCN(CCCN)C(=O)OCc1ccccc1`, the TGI in the test with SN12C renal, with OVCAR-5 ovarian, in the test on M14 melanoma, with UO-31 renal, in the test with SF-268 CNS and in the test with K-562 leukemia was more than 100 µM each time. For the same molecule, the TGI in the test with SR leukemia, in the test on IGROV1 ovarian, in the test on MOLT-4 leukemia and in the test on OVCAR-3 ovarian was more than 100 µM throughout.
Consider `CN(C)c1ccc(C(=C2C=CC(=[N+](C)C)C=C2)c2c(O)c(S(=O)(=O)[O-])cc3cc(S(=O)(=O)O)ccc23)cc1`, for which the TGI in the test with SN12C renal, in the test with OVCAR-5 ovarian, in the test on M14 melanoma, in the test on UO-31 renal, in the test on SF-268 CNS and in the test on K-562 leukemia was more than 100 µM in each case. The TGI with SR leukemia, with IGROV1 ovarian, in the test with MOLT-4 leukemia and in the test on OVCAR-3 ovarian was more than 100 µM throughout.
`CCOC(=O)Cn1c(=O)c2cc(C)cc3c(Cl)nc4c(OC)c(OC)cc1c4c32`: the TGI in the test on OVCAR-5 ovarian, in the test on M14 melanoma, in the test with UO-31 renal, in the test on SF-268 CNS, with K-562 leukemia and in the test with SR leukemia was more than 100 µM in each case. Further, the TGI in the test on IGROV1 ovarian, in the test on MOLT-4 leukemia and with OVCAR-3 ovarian was more than 100 µM throughout.
On to `CCOC(=O)n1c2ccccc2c2c(O)c(OC)c3c(c21)C(=O)NC3=O`, for which the TGI with SN12C renal is more than 100 µM; in the test on OVCAR-5 ovarian it was more than 100 µM; with M14 melanoma, more than 100 µM; in the test on UO-31 renal, more than 100 µM; in the test with K-562 leukemia it was more than 100 µM; with SR leukemia it was 87.9 µM. The TGI with IGROV1 ovarian, in the test on MOLT-4 leukemia and in the test on OVCAR-3 ovarian was more than 100 µM each time.
Regarding `O=C(O)C(C1NCCS1)N1Cc2ccccc2C1` (stereo unspecified), the TGI with SN12C renal, in the test on OVCAR-5 ovarian, in the test with M14 melanoma, in the test on UO-31 renal, in the test on K-562 leukemia and with SR leukemia was more than 100 µM each time. The TGI in the test with IGROV1 ovarian, in the test on MOLT-4 leukemia and in the test on OVCAR-3 ovarian was more than 100 µM each time.
Turning to `COC(CO[Si](C)(C)N[Si](C)(C)OCC(OC)c1ccccc1)c1ccccc1` (stereo unspecified), the TGI in the test with SN12C renal, with OVCAR-5 ovarian, in the test on M14 melanoma, with UO-31 renal, in the test on K-562 leukemia and in the test on SR leukemia was more than 100 µM throughout. For the same molecule, the TGI in the test on IGROV1 ovarian, with MOLT-4 leukemia and in the test on OVCAR-3 ovarian was more than 100 µM each time.

(Values after PubChem BioAssay (NCI).)
